Test results taken from patent publication US20140288102A1, “PREVENTION OF RECURRENCES OF URETHRAL STRICTURES FOLLOWING CONVENTIONAL THERAPY” (priority 2007, published 2014).
“And” between values parts separate entries of the source, which are not always exact repeats. Identical values can stand only once. “Also recorded” adds a separate entry of the source.

Tests used:
New Zealand male rabbits [1] = assay: Prevention of the onset of urethral strictures after electrocoagulation of the bulbar urethra (Example 1); type: in vivo, rabbit
Experimental: Near-circumferential, 15 mm long electrocoagulation of the bulbar urethra was performed endoscopically on 20 New Zealand male rabbits using a pediatric resectoscope and a round-ended electrocautery. The rabbits were randomized into 2 groups of 10 animals each. The first group received a diet containing 10 mg/kg of Halofuginone initiated 4 days before electrocoagulation and continued for 3 weeks. The second group received a standard chow, free of Halofuginone. Three weeks after electrocoagulation, the rabbits were examined by video urethrocystoscopy and retrograde urethrocystography and subsequently sacrificed for histological examination. The urethra was removed in one piece and fixed in 10% buffered formaldehyde. The histological examination was performed after the specimens were embedded in paraffin and stained with Masson trichrome, hematoxylin-eosin, and Sirius Red (IMEB, Inc., Chicago, Ill.) in order to evaluate fibrosis. With the latter staining method, collagen appears in red.

New Zealand male rabbits [2] = assay: Prevention of the recurrence of urethral strictures following endoscopic internal urethrotomy (Example 2); type: in vivo, rabbit
Experimental: Near-circumferential, 15 mm long electrocoagulation of the bulbar urethra was performed endoscopically on 48 New Zealand male rabbits using a pediatric resectoscope and a round-ended electrocautery. Three weeks after electrocoagulation, the urethral strictures were evaluated using video urethrocystoscopy and retrograde urethrocystography. […] The urethral lumen was reduced by 70-95% (mean 88.5%). The obtained strictures were 7 to 19 mm in length (mean 11.7). Endoscopic internal urethrotomy was performed on all surviving rabbits using a cold knife, under visual guidance with a 0.028-inch diameter endoscopic guidewire. A single deep incision was made at the 12 o'clock position in all animals. The rabbits were subsequently randomized into 2 groups: one study group receiving Halofuginone for 10 weeks starting on the day of the urethrotomy, and one control group without Halofuginone. The study group was fed on a diet containing 10 mg/kg of Halofuginone, whereas the control group received a normal, Halofuginone-free diet. The rabbits were then monitored and evaluated for urethral strictures if any of the following signs appeared: decrease in 24-hour urine output, anorexia, worsening of general health status with palpable bladder distension. In the absence of any of these signs, the animals were systematically evaluated for urethral strictures 10 weeks after urethrotomy. This evaluation was performed using video urethrocystoscopy and retrograde urethrocystography. Thereafter, the rabbits were sacrificed for histological examination. The entire urethra was removed and fixed in 10% buffered formaldehyde. The histological examination was performed after the specimens had been embedded in paraffin and stained with Masson trichrome, hematoxylin-eosin, and Sirius Red (IMEB, Inc., Chicago, Ill.) in order to evaluate fibrosis. With the latter staining method, collagen appears in red.

[3] = the 2 treated rabbits with significant stricture, 3 weeks after electrocoagulation

## O=C(CC1NCCC[C@H]1O)Cn1cnc2cc(Br)c(Cl)cc2c1=O (stereo partly drawn) [Halofuginone]
New Zealand male rabbits [1]; 10 rabbits, diet containing 10 mg/kg Halofuginone from 4 days before electrocoagulation, continued 3 weeks, evaluated at 3 weeks, control 10 of 10, p<0.001
  Nr. of urethral strictures (rabbits with significant urethral stricture): 2
New Zealand male rabbits [1]; of 10 treated rabbits, 3 weeks after electrocoagulation
  number of rabbits with normal urethra: 6
New Zealand male rabbits [1]; [3]
  length of the significant strictures: 10 mm and 8 mm
  reduction in urethral lumen caliber in the significant strictures: 70% and 90%
New Zealand male rabbits [1]; treated rabbits without significant stricture
  histological study of the urethra (fibrosis): only focal alterations, with limited areas of fibrosis alternating with subnormal or normal urethral walls
New Zealand male rabbits [1]; two other treated rabbits, 3 weeks after electrocoagulation
  narrowing of the urethral lumen: less than 30%
New Zealand male rabbits [2]; a rabbit of the study group, 10 weeks after internal urethrotomy, FIG. 2B
  retrograde urethrocystogram of the bulbar urethra: no recurrent stricture was seen
New Zealand male rabbits [2]; diet containing 10 mg/kg Halofuginone for 10 weeks from day of urethrotomy, control 14/19, P 0.005
  Post-urethrotomy recurrent stricture, Nr./total Nr.: 5/18
New Zealand male rabbits [2]; diet containing 10 mg/kg Halofuginone for 10 weeks from day of urethrotomy, control 73, P 0.005
  Post-urethrotomy recurrent stricture (%): 27%
New Zealand male rabbits [2]; of 18 rabbits, control 2 of 19
  Nr. according to extent of histological fibrosis: Moderate to severe: 1
New Zealand male rabbits [2]; of 18 rabbits, control 5 of 19
  Nr. according to extent of histological fibrosis: Mild or absent: 13
New Zealand male rabbits [2]; of 18 rabbits, control 12 of 19
  Nr. according to extent of histological fibrosis: Severe: 4
New Zealand male rabbits [2]; rabbits with no recurrence of stricture, FIG. 3
  histological study of the site of the prior urethrotomy (fibrosis): no fibrosis or minimal fibrosis; also recorded: minimal fibrosis
New Zealand male rabbits [2]; recurrent strictures in Halofuginone group, control 11.4
  Post-urethrotomy recurrent stricture, average length: 7.2 mm
New Zealand male rabbits [2]; recurrent strictures in Halofuginone group, control 82.9
  Post-urethrotomy recurrent stricture, average reduction of lumen: 92%
New Zealand male rabbits [2]; study group
  number of rabbits with recurrent stricture diagnosed at the 10-week evaluation: 2
New Zealand male rabbits [2]; study group, 18 evaluable rabbits
  number of rabbits that developed no recurrence of urethral stricture: 13
New Zealand male rabbits [2]; study group, before the 10-week evaluation
  number of rabbits with recurrence suspected on clinical signs and confirmed radiologically and endoscopically: 3
